The values that follow come from patent US20160083357A1, “NOVEL TETRAZOLONE DERIVATIVES” (Hoffmann-La Roche Inc., priority 2013, published 2016).

Read-outs that look alike come from different tables or passages of the source. Bounds are passed on as bounds.

For one test, the target named is T1, human CB1 receptors (Homo sapiens, UniProt P21554).
T1 construct: expressed in transfected cells; host or cells: CHO cells
The test is described as follows: cAMP assay, human CB1. The test is classed as cell-based. The protocol: (§1) CHO cells expressing human CB1 or CB2 receptors are seeded 17-24 hours prior to the experiment 50.000 cells per well in a black 96 well plate with flat clear bottom (Corning Costar #3904) in DMEM (Invitrogen No. 31331), lx HT supplement, with 10% fetal calf serum and incubated at 5% CO2 and 37° C. in a humidified incubator. The growth medium was exchanged with Krebs Ringer Bicarbonate buffer with 1 mM IBMX and incubated at 30° C. for 30 min. Compounds were added to a final assay volume of 100 μl and incubated for 30 min at 30° C. Using the cAMP-Nano-TRF detection kit the assay (Roche Diagnostics) was stopped by the addition of 50 μl lysis reagent (Tris, NaCl, 1.5% Triton X100, 2.5% NP40, 10% NaN3) and 50 μl detection solutions (20 μM mAb Alexa700-cAMP 1:1, and 48 μM Ruthenium-2-AHA-cAMP) and shaken for 2 h at room temperature. The time-resolved energy transfer is measured by a TRF reader (Evotec Technologies GmbH), equipped with a ND:YAG laser as excitation source. The plate is measured twice with the excitation at 355 nm and at the emission with a delay of 100 ns and a gate of 100 ns, total exposure time 10 s at 730 (bandwidth 30 nm) or 645 nm (bandwidth 75 nm), respectively. The FRET signal is calculated as follows: FRET=T730-Alexa730-P(T645-B645) with P=Ru730-B730/Ru645-B645, where T730 is the test well measured at 730 nM, T645 is the test well measured at 645 nm, B730 and B645 are the buffer controls at 730 nm and 645 nm, respectively. cAMP content is determined from the function of a standard curve spanning from 10 μM to 0.13 nM cAMP.
(§2) EC50 values were determined using Activity Base analysis (ID Business Solution, Limited). The EC50 values for a wide range of cannabinoid agonists generated from this assay were in agreement with the values published in the scientific literature.
A general note: Cyclic AMP is a second messenger, typically raised through Gs and lowered through Gi signalling.

A further test deals with T2, human CB2 receptors (Homo sapiens, UniProt P34972).
T2 construct: expressed in transfected cells; host or cells: CHO cells
In words: cAMP assay, human CB2. The test is classed as cell-based. The protocol:
as §1, §2

Setting [1] is: functional cAMP assay, CHO cells expressing human CB1, read-out: Ec50: CB1 - hu cAMP.
The mark [2] stands for this setting: functional cAMP assay, CHO cells expressing human CB2, read-out: Ec50: CB2 - hu cAMP.

T2 sequence (P34972 whole entry): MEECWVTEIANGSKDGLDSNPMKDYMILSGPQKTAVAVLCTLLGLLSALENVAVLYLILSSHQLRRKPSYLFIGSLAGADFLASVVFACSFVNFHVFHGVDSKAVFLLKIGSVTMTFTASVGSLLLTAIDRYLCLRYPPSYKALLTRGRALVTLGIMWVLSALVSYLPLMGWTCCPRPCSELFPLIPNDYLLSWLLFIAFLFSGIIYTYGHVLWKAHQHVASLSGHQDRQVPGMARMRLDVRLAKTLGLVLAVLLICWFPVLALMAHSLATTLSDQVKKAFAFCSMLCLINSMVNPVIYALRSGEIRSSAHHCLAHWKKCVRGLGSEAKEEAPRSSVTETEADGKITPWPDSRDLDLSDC
T1 sequence (P21554 whole entry): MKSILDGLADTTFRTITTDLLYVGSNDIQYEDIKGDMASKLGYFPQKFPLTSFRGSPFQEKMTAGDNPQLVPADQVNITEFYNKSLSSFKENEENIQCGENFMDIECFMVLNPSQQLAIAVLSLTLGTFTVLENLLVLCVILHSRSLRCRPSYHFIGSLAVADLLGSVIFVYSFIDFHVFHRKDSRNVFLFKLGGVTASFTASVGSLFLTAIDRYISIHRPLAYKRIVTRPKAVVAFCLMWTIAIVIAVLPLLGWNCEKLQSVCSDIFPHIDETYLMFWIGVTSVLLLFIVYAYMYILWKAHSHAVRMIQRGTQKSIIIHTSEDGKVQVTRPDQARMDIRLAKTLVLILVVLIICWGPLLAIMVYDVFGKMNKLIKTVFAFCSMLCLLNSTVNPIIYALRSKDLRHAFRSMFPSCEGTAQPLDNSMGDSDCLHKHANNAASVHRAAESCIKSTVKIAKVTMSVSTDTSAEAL

What is called EC50 is the concentration giving half of the maximal effect. Take `CCNC(=O)CN1CCN(C(=O)n2nnn(-c3cccc(OC(F)(F)F)c3)c2=O)CC1` [Example 105, N-Ethyl-2-{4-[5-oxo-4-(3-trifluoromethoxy-phenyl)-4,5-dihydro-tetrazole-1-carbonyl]-piperazin-1-yl}-acetamide]: the EC50 on human CB1 receptors (setting [1]) was more than 10000 nM; on human CB2 receptors (setting [2]), 20.1 nM.

In the case of `CC(C)(C)OC(=O)N1CCC(n2nnn(-c3cccc(F)c3)c2=O)CC1` [Example 15, 4-[4-(3-Fluoro-phenyl)-5-oxo-4,5-dihydro-tetrazol-1-yl]-piperidine-1-carboxylic acid tert-butyl ester], the EC50 at human CB1 receptors (setting [1]) is more than 10000 nM; at human CB2 receptors (setting [2]), 3000 nM.

With `COC(=O)C1(NC(=O)OC(C)(C)C)CCN(C(=O)n2nnn(-c3cccc(F)c3)c2=O)CC1` [Example 62, 4-tert-Butoxycarbonylamino-1-[4-(3-fluoro-phenyl)-5-oxo-4,5-dihydro-tetrazole-1-carbonyl]-piperidine-4-carboxylic acid methyl ester], the EC50 at human CB1 receptors (setting [1]) was more than 10000 nM; on human CB2 receptors (setting [2]), 61.4 nM.

As for `CC(=O)N[C@@H]1CCN(C(=O)n2nnn(-c3cccc(F)c3)c2=O)C1` [Example 43, N—{(R)-1-[4-(3-Fluoro-phenyl)-5-oxo-4,5-dihydro-tetrazole-1-carbonyl]-pyrrolidin-3-yl}-acetamide], the EC50 at human CB1 receptors (setting [1]) is more than 10000 nM; on human CB2 receptors (setting [2]), 25.8 nM.

As for `NC(=O)[C@@H]1CCCN1C(=O)n1nnn(-c2cccc(F)c2)c1=O` [Example 22, (S)-1-[4-(3-Fluoro-phenyl)-5-oxo-4,5-dihydro-tetrazole-1-carbonyl]-pyrrolidine-2-carboxylic acid amide], the EC50 at human CB1 receptors (setting [1]) was more than 10000 nM; at human CB2 receptors (setting [2]) it was 1920 nM.

As for `O=C(CN1CCN(C(=O)n2nnn(-c3cccc(F)c3)c2=O)CC1)N1CCCC1` [Example 27, 1-(3-Fluoro-phenyl)-4-[4-(2-oxo-2-pyrrolidin-1-yl-ethyl)-piperazine-1-carbonyl]-1,4-dihydro-tetrazol-5-one], the figures for the EC50 on human CB1 receptors (setting [1]) and at human CB2 receptors (setting [2]) were more than 10000 nM and 7.1 nM, respectively.

As for `COCC1CCN(C(=O)n2nnn(-c3cccc(F)c3)c2=O)CC1` [Example 60, 1-(3-Fluoro-phenyl)-4-(4-methoxymethyl-piperidine-1-carbonyl)-1,4-dihydro-tetrazol-5-one], the EC50 on human CB1 receptors (setting [1]) was more than 10000 nM; at human CB2 receptors (setting [2]), 1.3 nM.

Regarding `CC(C(=O)N1CCCC1)N1CCN(C(=O)n2nnn(-c3ccc(Cl)cc3)c2=O)CC1` (centres unmarked) [Example 118, 1-(4-Chloro-phenyl)-4-[4-(1-methyl-2-oxo-2-pyrrolidin-1-yl-ethyl)-piperazine-1-carbonyl]-1,4-dihydro-tetrazol-5-one], the EC50 at human CB1 receptors (setting [1]) is more than 10000 nM; at human CB2 receptors (setting [2]), 114 nM.

Take `NC(=O)C1CCCN(C(=O)n2nnn(-c3cccc(F)c3)c2=O)C1` (centres unmarked) [Example 3, 1-[4-(3-Fluoro-phenyl)-5-oxo-4,5-dihydro-tetrazole-1-carbonyl]-piperidine-3-carboxylic acid amide]: the values for the EC50 at human CB1 receptors (setting [1]) and at human CB2 receptors (setting [2]) were more than 10000 nM and 15.9 nM, respectively.

For the compound `COc1ccc(CCN(C)C(=O)n2nnn(-c3cccc(F)c3)c2=O)cc1OC` [Example 1, 4-(3-Fluoro-phenyl)-5-oxo-4,5-dihydro-tetrazole-1-carboxylic acid [2-(3,4-dimethoxy-phenyl)-ethyl]-methyl-amide], the values for the EC50 on human CB1 receptors (setting [1]) and at human CB2 receptors (setting [2]) were more than 10000 nM and 0.6 nM, respectively.

Take `Cc1cc(C2CCCN2C(=O)n2nnn(-c3cccc(Cl)c3)c2=O)on1` (centres unmarked) [Example 74, 1-(3-Chloro-phenyl)-4-[2-(3-methyl-isoxazol-5-yl)-pyrrolidine-1-carbonyl]-1,4-dihydro-tetrazol-5-one]: the concentration for a half-maximal effect (EC50) at human CB1 receptors (setting [1]) was more than 10000 nM; on human CB2 receptors (setting [2]) it was 9.7 nM.

Regarding `CCOC(=O)Cn1nnn(-c2cccc(Cl)c2)c1=O` [Example 114, [4-(3-Chloro-phenyl)-5-oxo-4,5-dihydro-tetrazol-1-yl]-acetic acid ethyl ester], the EC50 at human CB1 receptors (setting [1]) is more than 10000 nM; on human CB2 receptors (setting [2]), 1990 nM.

Regarding `CC[C@H](C)[C@@H](C(=O)OC)N(C)C(=O)n1nnn(-c2cccc(F)c2)c1=O` [Example 13, (2S,3S)-2-{[4-(3-Fluoro-phenyl)-5-oxo-4,5-dihydro-tetrazole-1-carbonyl]-methyl-amino}-3-methyl-pentanoic acid methyl ester], the EC50 on human CB1 receptors (setting [1]) is more than 10000 nM; on human CB2 receptors (setting [2]) it was 11.2 nM.

Take `O=C(N1CCOCC1)n1nnn(-c2cccc(Cl)c2Cl)c1=O` [Example 131, 1-(2,3-dichlorophenyl)-4-(morpholine-4-carbonyl)tetrazol-5-one]: the results for the EC50 on human CB1 receptors (setting [1]) and on human CB2 receptors (setting [2]) were more than 10000 nM and 16 nM, respectively.

Consider `COCC1CCCCN1C(=O)n1nnn(-c2cccc(F)c2)c1=O` (centres unmarked) [Example 34, 1-(3-Fluoro-phenyl)-4-(2-methoxymethyl-piperidine-1-carbonyl)-1,4-dihydro-tetrazol-5-one], for which the EC50 on human CB1 receptors (setting [1]) was more than 10000 nM; at human CB2 receptors (setting [2]) it was 19 nM.

`CC(C(=O)N1CCCC1)N1CCN(C(=O)n2nnn(-c3cccc(Cl)c3)c2=O)CC1` (centres unmarked) [Example 116, 1-(3-Chloro-phenyl)-4-[4-(1-methyl-2-oxo-2-pyrrolidin-1-yl-ethyl)-piperazine-1-carbonyl]-1,4-dihydro-tetrazol-5-one]: the 50% effective concentration (EC50) on human CB1 receptors (setting [1]) was more than 10000 nM; on human CB2 receptors (setting [2]) it was 122 nM.

For the compound `CCCN(CCOC)C(=O)n1nnn(-c2cccc(F)c2)c1=O` [Example 56, 4-(3-Fluoro-phenyl)-5-oxo-4,5-dihydro-tetrazole-1-carboxylic acid (2-methoxy-ethyl)-propyl-amide], the EC50 was more than 10000 nM on human CB1 receptors and 17 nM on human CB2 receptors.

For `O=C(CN1CCN(C(=O)n2nnn(-c3cccc(Cl)c3)c2=O)CC1)N1CCOCC1` [Example 89, 1-(3-Chloro-phenyl)-4-[4-(2-morpholin-4-yl-2-oxo-ethyl)-piperazine-1-carbonyl]-1,4-dihydro-tetrazol-5-one], the values for the EC50 at human CB1 receptors (setting [1]) and on human CB2 receptors (setting [2]) were more than 10000 nM and 16.9 nM, respectively.

With `CN(CCc1ccccc1)C(=O)n1nnn(-c2cccc(F)c2)c1=O` [Example 5, 4-(3-Fluoro-phenyl)-5-oxo-4,5-dihydro-tetrazole-1-carboxylic acid methyl-phenethyl-amide], the EC50 is more than 10000 nM at human CB1 receptors (setting [1]) and 0.8 nM at human CB2 receptors (setting [2]).

For `Cc1cc(C2CCCN2C(=O)n2nnn(-c3cccc(OC(F)(F)F)c3)c2=O)on1` (centres unmarked) [Example 75, 1-[2-(3-Methyl-isoxazol-5-yl)-pyrrolidine-1-carbonyl]-4-(3-trifluoromethoxy-phenyl)-1,4-dihydro-tetrazol-5-one], the EC50 on human CB1 receptors (setting [1]) was more than 10000 nM; at human CB2 receptors (setting [2]), 28.5 nM.

Consider `COC(=O)C1CN(C(=O)n2nnn(-c3cccc(F)c3)c2=O)C1` [Example 24, 1-[4-(3-Fluoro-phenyl)-5-oxo-4,5-dihydro-tetrazole-1-carbonyl]-azetidine-3-carboxylic acid methyl ester], for which the values for the EC50 at human CB1 receptors (setting [1]) and on human CB2 receptors (setting [2]) were more than 10000 nM and 122 nM, respectively.

Regarding `O=C(N1CCC2(CCOC2)CC1)n1nnn(-c2cccc(F)c2)c1=O` [Example 64, 1-(3-Fluoro-phenyl)-4-(2-oxa-8-aza-spiro[4.5]decane-8-carbonyl)-1,4-dihydro-tetrazol-5-one], the EC50 on human CB1 receptors (setting [1]) is more than 10000 nM; on human CB2 receptors (setting [2]), 2.5 nM.

For `COCCN(C(=O)n1nnn(-c2ccc(Cl)cc2)c1=O)C(C)C` [Example 85, 4-(4-Chloro-phenyl)-5-oxo-4,5-dihydro-tetrazole-1-carboxylic acid isopropyl-(2-methoxy-ethyl)-amide], the EC50 on human CB1 receptors was more than 10000 nM; at human CB2 receptors, 7.9 nM.

For `O=C(N1CCOCC1)n1nnn(-c2c(F)cccc2F)c1=O` [Example 122, 1-(2,6-difluorophenyl)-4-(morpholine-4-carbonyl)tetrazol-5-one], the EC50 on human CB1 receptors was more than 10000 nM; at human CB2 receptors, 19 nM.

Consider `O=c1n(Cc2ccc(F)cc2)nnn1-c1cccc(F)c1` [Example 14, 1-(4-Fluoro-benzyl)-4-(3-fluoro-phenyl)-1,4-dihydro-tetrazol-5-one], for which the EC50 on human CB1 receptors (setting [1]) was more than 10000 nM; on human CB2 receptors (setting [2]) it was 1180 nM.

For the compound `O=C(N1CCOCC1)n1nnn(-c2cccc(Br)c2)c1=O` [Example 135, 1-(3-bromophenyl)-4-(morpholine-4-carbonyl)tetrazol-5-one], the EC50 was more than 10000 nM on human CB1 receptors (setting [1]) and 7 nM on human CB2 receptors (setting [2]).

For the compound `COCCN(CCOC)C(=O)n1nnn(-c2cccc(F)c2)c1=O` [Example 57, 4-(3-Fluoro-phenyl)-5-oxo-4,5-dihydro-tetrazole-1-carboxylic acid bis-(2-methoxy-ethyl)-amide], the EC50 on human CB1 receptors (setting [1]) was more than 10000 nM; on human CB2 receptors (setting [2]) it was 8.5 nM.

For `COc1ccc(-n2nnn(C(=O)N3CCOCC3)c2=O)cc1` [Example 130, 1-(4-methoxyphenyl)-4-(morpholine-4-carbonyl)tetrazol-5-one], the figures for the EC50 at human CB1 receptors (setting [1]) and on human CB2 receptors (setting [2]) were more than 10000 nM and 6.7 nM, respectively.
